Results reported in ChEMBL document CHEMBL3763096, “8-Halo-substituted naphtho[2,3-b]thiophene-4,9-diones as redox-active inhibitors of keratinocyte hyperproliferation with reduced membrane-damaging properties” (Eur J Med Chem, 2016).
Activity calls are given as the source filed them. The calls are words filed in the database; no cut-off is given here.

Experiments:
[1] = tested on: HaCaT; assay: Cytotoxicity against human HaCaT cells assessed as LDH level at 2 uM incubated for 4 hrs; type: cell-based
[2] = tested on: HaCaT; assay: Antihyperproliferative activity against human HaCaT cells after 48 hrs by phase contrast microscopic analysis; type: functional, cell-based
[3] = biological target: T1, NADPH--cytochrome P450 reductase (Homo sapiens, UniProt P16435); assay: Activity at human recombinant CPR assessed as superoxide generation at 100 umol/ml by spectrophotometric assay
T1 sequence (P16435 whole entry): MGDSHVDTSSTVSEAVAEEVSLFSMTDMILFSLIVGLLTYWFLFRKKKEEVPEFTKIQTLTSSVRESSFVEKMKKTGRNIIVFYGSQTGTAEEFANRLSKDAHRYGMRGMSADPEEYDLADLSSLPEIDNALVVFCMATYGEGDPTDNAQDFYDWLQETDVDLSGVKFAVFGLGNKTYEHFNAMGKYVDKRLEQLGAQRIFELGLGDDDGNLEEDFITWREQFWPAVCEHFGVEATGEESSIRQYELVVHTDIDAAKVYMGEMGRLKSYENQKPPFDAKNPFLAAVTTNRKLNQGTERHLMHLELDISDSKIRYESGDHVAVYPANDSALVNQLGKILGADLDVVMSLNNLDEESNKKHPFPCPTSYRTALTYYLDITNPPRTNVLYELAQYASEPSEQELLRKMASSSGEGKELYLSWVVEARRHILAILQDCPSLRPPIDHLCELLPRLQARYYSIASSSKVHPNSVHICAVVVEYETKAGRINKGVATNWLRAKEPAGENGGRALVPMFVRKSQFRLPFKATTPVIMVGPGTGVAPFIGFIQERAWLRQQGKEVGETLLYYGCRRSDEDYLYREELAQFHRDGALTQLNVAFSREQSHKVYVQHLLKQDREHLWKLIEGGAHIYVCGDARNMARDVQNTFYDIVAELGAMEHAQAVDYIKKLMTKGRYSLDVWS

[4] = biological target: NAD(P)H dehydrogenase [quinone] 1 (Homo sapiens) (UniProt P15559); assay: Activity at human recombinant NQO1 assessed as superoxide generation at 25 umol/ml by spectrophotometric assay
[5] = tested on: HaCaT; assay: Increase in superoxide generation in human HaCaT cells at 5 uM incubated for 18 hrs by DHE-based flow cytometric analysis; type: functional, cell-based
[6] = tested on: HaCaT; assay: Increase in superoxide generation in human HaCaT cells at 5 uM incubated for 18 hrs pretreated with 5 umol/L NQO1 inhibitor dicoumarol for 25 mins followed by compound addition by DHE-based flow cytometric analysis; type: functional, cell-based

NAD(P)H dehydrogenase [quinone] 1 (Homo sapiens), sequence (P15559 whole entry): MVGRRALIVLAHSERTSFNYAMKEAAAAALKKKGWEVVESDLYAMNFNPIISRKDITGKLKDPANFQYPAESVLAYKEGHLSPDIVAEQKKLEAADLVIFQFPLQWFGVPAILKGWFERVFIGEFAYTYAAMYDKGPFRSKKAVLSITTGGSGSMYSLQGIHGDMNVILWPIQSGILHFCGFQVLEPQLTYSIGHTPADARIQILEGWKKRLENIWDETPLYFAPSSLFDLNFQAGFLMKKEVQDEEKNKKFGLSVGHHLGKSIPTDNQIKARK

Structure (SMILES) | Activity [1] | IC50 [2] | other results
CC(=O)c1cc2c(s1)C(=O)c1ccccc1C2=O | 253 mU/ml |  | 
O=C(c1cccs1)c1cc2c(s1)C(=O)c1c(Cl)cccc1C2=O | 127 mU/ml | 1540 nM | 
CC1=CC(=O)c2ccccc2C1=O [MENADIONE] |  |  | Activity [3]: Active
CCC(=O)c1cc2c(s1)C(=O)c1c(Cl)cccc1C2=O | 116 mU/ml | 2750 nM | 
O=C1c2ccsc2C(=O)c2c(Cl)cccc21 |  |  | Activity [3]: Active; Activity [4]: inactive; Activity [5]: Active; Activity [6]: Active
O=C(Nc1ccccc1)c1cc2c(s1)C(=O)c1c(Cl)cccc1C2=O | 121 mU/ml | > 30000 nM | 
CCNC(=O)c1cc2c(s1)C(=O)c1c(Cl)cccc1C2=O | 109 mU/ml | 1050 nM | 
COC(=O)c1cc2c(s1)C(=O)c1c(Br)cccc1C2=O | 124 mU/ml | 2200 nM | 
O=C(O)c1cc2c(s1)C(=O)c1c(Cl)cccc1C2=O | 112 mU/ml | > 30000 nM | 
O=C1c2ccsc2C(=O)c2c1cccc2C(F)(F)F |  | 4850 nM | 
O=C(c1ccccc1)c1cc2c(s1)C(=O)c1c(Cl)cccc1C2=O | 122 mU/ml | 1770 nM | 
CCC(=O)c1cc2c(s1)C(=O)c1c(Br)cccc1C2=O | 113 mU/ml | 2910 nM | 
O=C1c2ccsc2C(=O)c2c(I)cccc21 |  | > 30000 nM | 
CCOC(=O)c1cc2c(s1)C(=O)c1c(Cl)cccc1C2=O | 97 mU/ml | 1220 nM | 
CC(=O)c1cc2c(s1)C(=O)c1c(Br)cccc1C2=O | 116 mU/ml | 1500 nM | 
O=C(c1ccccc1)c1cc2c(s1)C(=O)c1c(Br)cccc1C2=O | 121 mU/ml | 13200 nM | 
COC(=O)c1cc2c(s1)C(=O)c1c(Cl)cccc1C2=O | 130 mU/ml | 900 nM | 
CCc1noc(-c2cc3c(s2)C(=O)c2c(Cl)cccc2C3=O)n1 | 121 mU/ml | 590 nM | Activity [3]: Active; Activity [4]: inactive; Activity [5]: Active; Activity [6]: Active

Structure (SMILES) | Activity [1] | IC50 [2] | other results
CCc1noc(-c2cc3c(s2)C(=O)c2c(O)cccc2C3=O)n1 |  |  | Activity [3]: Active; Activity [5]: Active; Activity [6]: Active
O=C1c2ccsc2C(=O)c2c(O)cccc21 |  |  | Activity [3]: Active; Activity [5]: Active; Activity [6]: Active
O=C1c2ccsc2C(=O)c2c(Br)cccc21 |  | 14800 nM | 
O=C(Oc1ccccc1)c1cc2c(s1)C(=O)c1c(Br)cccc1C2=O |  | 6640 nM | 
O=C1c2cc(-c3nnn[nH]3)sc2C(=O)c2c(Cl)cccc21 | 95 mU/ml | > 30000 nM | 
CC(=O)c1cc2c(s1)C(=O)c1c(O)cccc1C2=O | 319 mU/ml |  | Activity [3]: Active; Activity [5]: Active; Activity [6]: Active
O=C(c1cccs1)c1cc2c(s1)C(=O)c1c(Br)cccc1C2=O | 107 mU/ml | 11900 nM | 
O=Cc1cc2c(s1)C(=O)c1c(Br)cccc1C2=O |  | 3820 nM | 
CCN(CC)C(=O)c1cc2c(s1)C(=O)c1c(Cl)cccc1C2=O | 112 mU/ml | 720 nM | 
O=C(O)c1cc2c(s1)C(=O)c1c(Br)cccc1C2=O | 108 mU/ml | > 30000 nM | 
O=C(c1cccnc1)c1cc2c(s1)C(=O)c1c(Br)cccc1C2=O |  | 8630 nM | 
CCOC(=O)c1cc2c(s1)C(=O)c1c(Br)cccc1C2=O | 121 mU/ml | 1720 nM | 
O=C(Oc1ccccc1)c1cc2c(s1)C(=O)c1c(Cl)cccc1C2=O | 97 mU/ml | 10500 nM | 
CC(=O)c1cc2c(s1)C(=O)c1c(Cl)cccc1C2=O | 124 mU/ml |  | Activity [3]: Active; Activity [5]: Active; Activity [6]: Active
O=C(c1cccnc1)c1cc2c(s1)C(=O)c1c(Cl)cccc1C2=O | 125 mU/ml | 570 nM | 
O=C1c2ccsc2C(=O)c2c(F)cccc21 |  | 8500 nM | 
O=Cc1cc2c(s1)C(=O)c1c(Cl)cccc1C2=O | 107 mU/ml | 4700 nM | 
